Reference: patent US8658599B2, “Peptide for the prophylactic or therapeutic treatment of skin tumors in initial stages” (Digna Biotech, S.L., priority 2009, dated 2014)
Where no end group is shown, it is not given here.

Experiments:
[1] = target: T1, TGF-β1 (Homo sapiens, UniProt P01137); conditions: shown previously, WO 00/31135; cited from earlier work
T1 construct: host or cells: My-1-Lu cell line (so in the source)

[2] = system: skin tumors in mice initiated with DMBA; experiment: Tumor-promoting effect: TPA replaced by disitertide cream in DMBA-initiated mice; format: in vivo, Swiss albino mice; conditions: group 2
Method: The tumors were induced on the shaved dorsal skin of mice aged 6-8 weeks through a single topical application of DMBA (32 μg in 200 μl of acetone), followed by treatment twice a week with 12.5 μg of TPA in 200 μl of acetone (10^−4 M) for 12 weeks. In addition, groups of mice were treated with a topical formulation in the form of cream that contained disitertide or not, as specified below. Each week the number of tumors bigger than 2 mm in diameter were recorded in each mouse. At the end of the experiment, the animals were anesthetized and killed (32 weeks after the initiation with DMBA), and the tumors were fixed in 10% formaldehyde and embedded in paraffin for the histological studies.
(§1) In order to test the possible tumor-promoting effect of disitertide, TPA was replaced by a treatment with a topical formulation cream containing disitertide (group 2, consisting of 5 animals) or with vehicle only (group 1, consisting of 5 mice) during the promotion phase of chemical carcinogenesis. Similarly, the possible carcinogenic activity of disitertide was analyzed in a group of 5 mice by repeated applications of disitertide every 2 days for 23 weeks. Since papillomas appear at around 7-8 weeks post-initiation, mice initiated with DMBA and promoted with TPA were further treated with disitertide every 2 days for 4 and 12 weeks (groups 5 and 6, respectively, 10 animals each), in order to test whether disitertide could prevent skin carcinogenesis. Treatment with disitertide started in the same week in which mice were initiated with DMBA (week 0), and applications with this and TPA were performed on alternate days. As a control, a group of mice (group 4, consisting of 5 animals) were treated with vehicle only (control cream) for 12 weeks. Finally, a group of animals with tumors (group 7, consisting of 10 animals) were treated with disitertide every 2 days for 20 weeks from week 12 to week 32 after initiation with DMBA. This group of mice was included in order to test a possible anti-tumor effect of the peptide. Disitertide was applied at a dose of 60 μg in 200 μl of the topical formulation as cream, except for mice of group 7 in which the dose of disitertide was increased up to 120 μg (in 400 μl of cream).

[3] = system: normal skin; parameters: species or system mice; conditions: mouse, in vivo
Method: as §1, with “Disitertide was applied at a dose of 60 μg in 200 μl of the topical formulation as cream, except for mice of group 7 in which the dose of disitertide was increased up to 120 μg (in 400 μl of cream).” left out

T1 sequence (P01137 279-390 limits assumed, species assumed): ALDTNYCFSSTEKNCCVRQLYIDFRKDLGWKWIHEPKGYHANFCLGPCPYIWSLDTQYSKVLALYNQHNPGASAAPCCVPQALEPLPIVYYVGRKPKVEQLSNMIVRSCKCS

Mean number of tumors per mouse at week 10 post-initiation ([2]; DMBA initiation, disitertide cream as promoter instead of TPA, 12 weeks, tumors >2 mm, week 10) | Mean number of tumors per mouse at week 14 post-initiation ([2]; DMBA initiation, disitertide cream as promoter instead of TPA, 12 weeks, tumors >2 mm, week 14) | Mean number of tumors per mouse at week 25 post-initiation ([2]; DMBA initiation, disitertide cream as promoter instead of TPA, 12 weeks, tumors >2 mm, week 25) | Mean number of tumors per mouse at week 32 post-initiation ([2]; DMBA initiation, disitertide cream as promoter instead of TPA, 12 weeks, tumors >2 mm, week 32) | Tumor induction when disitertide replaces TPA as promoter ([2]; DMBA-initiated mice promoted with disitertide cream for 12 weeks) | Effect on normal skin after repeated applications [3] | Substance | Capacity to act as TGF-β1 inhibitor [1]
– | – | – | – | – | – | P54: mammal homologue peptide of disitertide, SEQ ID NO: 2, amino acids 731-742 of rat type III receptor of TGF-β1 (TSLDATMIWTMM; P54 peptide) | act as TGF-β1 inhibitors
0.0 | 0.0 | 0.0 | 0.0 | no tumors were induced | no deleterious effect on normal skin | TSLDASIIWAMMQN [disitertide] | –
